For one data set, the target named is CYP3A4 (Homo sapiens (Human), UniProt P08684). Description: CYP inhibition, CYP3A4. Conditions: test compound at 10 μM. The class given is in vitro ADME. As for the experimental part:
(§1) The aim of this assay is to determine the inhibitory potential of a test compound. A major concern for drug-drug-interaction is cytochrome P450 inhibition. Reversible CYP inhibition was determined in human liver microsomes using specific probe substrates for human cytochrome P450 isoenzymes CYP1A2, 2C9, 2C19, 2D6 and 3A4.
(§2) The potential for CYP450 inhibition was assessed by performing in vitro inhibition studies using fluorogenic CYP450 substrates with the corresponding CYP450 enzymes and NADPH regeneration system (Vivid CYP450 Screening Kits) with some minor changes to the manufacturer's protocols. The fluorescent signal produced from reaction is directly proportional to the cytochrome P450 activity. In the cases when tested compounds interfere with the CYP450 enzyme-substrate reaction, the fluorescent signal decreases. In brief, the tested compounds were first dissolved in DMSO at 100× concentration (1 mM), and diluted in buffer to 2.5× concentration (25 μM). Then the 2.5× compound solutions were mixed with the Master Pre-mix consisting of Human CYP450+Oxidoreductase and NADP+Regeneration System (glucose-6-phosphate and glucose-6-phosphate dehydrogenase). After 10 minutes pre-incubation, the enzymatic reaction was initiated by the addition of a mix of NADPH and the appropriate CYP450 substrates. The plate was incubated for the desired reaction time (25 min for CYP1A2, CYP2C9, CYP2D6, and CYP3A4, 60 min for CYP2C19) after which Stop Reagent was added and fluorescence measured using SpectraMax Paradigm Multi-Mode Microplate Reader. All test points were performed in quadruplicates at concentration 10 μM (1% DMSO).
(§3) A 10 mM stock solution of test compound is prepared in methanol. This stock is further serially diluted 1:3 in methanol and then added to mixture containing 50 mM potassium phosphate buffer pH7.4, human liver microsomes (BD Gentest) and probe substrate. After pre-warming 5 min at 37° C., the reaction is started by adding co-factor mix ([…] glucose-6-phosphate, 1.7 mg/mL NADP, 6 U/mL of glucose-6-phosphate dehydrogenase), resulting in a final concentration of test compound at 10 μM (2% MeOH).
(§4) Final concentrations of co-factor mix components are as follows: 1.56 mg/mL glucose-6-phosphate, 0.34 mg/mL NADP, 1.2 U/mL of glucose-6-phosphate dehydrogenase.
(§5) After incubation at 37° C., the reaction (aliquot of 50 μL) is terminated with 150 μL CH3CN:MeOH (2:1) solution with internal standard (warfarin for 2C9, diclofenac for all other tested isoforms). Samples are centrifuged and the supernatant fractions analyzed by LC-MS/MS.
(§6) The instrument responses (ratio of test compound and internal standard peak areas) are referenced to those for solvent controls (assumed as 100%) in order to determine the percentage reduction in probe metabolism. Percent of control activity vs. concentration plots are generated and fitted using GraphPad Prism software to generate IC50.

For another data set, the target named is CYP1A2 (Homo sapiens (Human), UniProt P05177). The experiment in a line: in vitro. The protocol: as §1, §2, §3, §4, §5, §6
The target of a further data set is CYP2C9 (Homo sapiens (Human), UniProt P11712). The experiment in a line: CYP inhibition, CYP2C9. The format is in vitro ADME. Conditions: test compound at 10 μM, read-out: % Inhibition (PIN) 2C9. The protocol:
as §1
as §2, with “In brief, the tested compounds were first dissolved in DMSO at 100× concentration (1 mM), and diluted in buffer to 2.5× concentration (25 μM). Then the 2.5× compound solutions were mixed with the Master Pre-mix consisting of Human CYP450+Oxidoreductase and NADP+Regeneration System (glucose-6-phosphate and glucose-6-phosphate dehydrogenase).” left out
A 10 mM stock solution of test compound is prepared in methanol. This stock is further serially diluted 1:3 in methanol and then added to mixture containing 50 mM potassium phosphate buffer pH7.4, human liver microsomes (BD Gentest) and probe substrate. […]
as §5, §6

The target in another data set is human AT2R fused to Cb23 (Homo sapiens, UniProt P50052). The experiment in a line: Radioligand binding assay, displacement of 125I-[Sar1, Ile8]-Angiotensin II, hAT2R Cb23. Conditions: displacement of 125I-[Sar1, Ile8]-Angiotensin II, human AT2R fused to Cb23, HEK-293 cell membrane preparations; read-out: Binding affinity on hAT2R_Cb23 IC50. The gist of the method:
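Membranes from HEK-293 cells expressing human AT2R fused to Cb23 were incubated with 0.05 nM 125I-[Sar1, Ile8]-Angiotensin II in 100 μL buffer (50 mM Tris, 5 mM MgCl2, 1 mM EDTA, 0.1% BSA, pH 7.4) for one hour at 25° C. Ligands were tested as eight-point dose-response curves in duplicate, with C21 and Angiotensin II as references.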
For orientation: Loss of bound radioactivity is the signal in a displacement assay; it reports binding, not function.

Where [1] appears, read: human, probe not marked, read-out: % Inhibition (PIN) 3A4.
The mark [2] stands for this setting: pH 7.4, probe substrate Midazolam (M), human liver microsomes, read-out: % Inhibition (PIN) 3A4.
[3] abbreviates: pH 7.4, probe substrate Testosterone (T), human liver microsomes, read-out: % Inhibition (PIN) 3A4 (T).

Read-outs that look alike come from different tables or passages of the source.

CYP3A4, sequence (P08684 whole entry): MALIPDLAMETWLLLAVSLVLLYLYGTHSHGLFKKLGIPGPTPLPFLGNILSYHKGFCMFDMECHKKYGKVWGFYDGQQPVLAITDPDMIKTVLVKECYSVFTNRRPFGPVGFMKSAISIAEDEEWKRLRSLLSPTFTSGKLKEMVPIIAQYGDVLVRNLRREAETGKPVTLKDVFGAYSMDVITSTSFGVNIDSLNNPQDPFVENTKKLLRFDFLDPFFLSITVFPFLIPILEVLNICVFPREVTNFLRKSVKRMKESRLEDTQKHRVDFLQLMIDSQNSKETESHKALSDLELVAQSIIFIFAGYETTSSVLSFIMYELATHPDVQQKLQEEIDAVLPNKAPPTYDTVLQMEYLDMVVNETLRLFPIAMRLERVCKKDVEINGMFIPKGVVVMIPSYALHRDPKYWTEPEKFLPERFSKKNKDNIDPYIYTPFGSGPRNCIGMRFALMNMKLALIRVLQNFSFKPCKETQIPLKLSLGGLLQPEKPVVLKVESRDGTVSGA
CYP1A2, sequence (P05177 whole entry): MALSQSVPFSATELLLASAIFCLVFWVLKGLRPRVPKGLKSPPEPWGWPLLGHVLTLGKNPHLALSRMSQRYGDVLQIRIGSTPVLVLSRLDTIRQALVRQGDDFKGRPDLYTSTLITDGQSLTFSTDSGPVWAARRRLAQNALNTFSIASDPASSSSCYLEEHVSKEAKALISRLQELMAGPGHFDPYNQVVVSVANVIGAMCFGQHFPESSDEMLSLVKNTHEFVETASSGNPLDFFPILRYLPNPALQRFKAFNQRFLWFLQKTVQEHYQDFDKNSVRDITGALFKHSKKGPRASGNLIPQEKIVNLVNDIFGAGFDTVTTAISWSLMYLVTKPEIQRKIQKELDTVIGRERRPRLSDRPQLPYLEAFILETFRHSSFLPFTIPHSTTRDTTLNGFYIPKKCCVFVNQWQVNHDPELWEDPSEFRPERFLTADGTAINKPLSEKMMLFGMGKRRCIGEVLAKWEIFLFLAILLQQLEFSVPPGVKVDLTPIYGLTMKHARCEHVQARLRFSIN
human AT2R fused to Cb23, sequence (P50052 whole entry, looked up, the tested form may be a part): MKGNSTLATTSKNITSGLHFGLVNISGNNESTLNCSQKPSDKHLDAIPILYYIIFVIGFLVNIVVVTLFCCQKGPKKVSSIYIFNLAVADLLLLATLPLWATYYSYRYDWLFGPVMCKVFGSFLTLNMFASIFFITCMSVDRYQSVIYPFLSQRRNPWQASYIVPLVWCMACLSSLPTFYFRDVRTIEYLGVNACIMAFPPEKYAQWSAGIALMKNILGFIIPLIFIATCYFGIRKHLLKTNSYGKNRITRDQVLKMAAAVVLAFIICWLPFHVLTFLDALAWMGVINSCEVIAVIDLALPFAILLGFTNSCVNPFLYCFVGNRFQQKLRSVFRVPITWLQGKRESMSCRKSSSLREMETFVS
CYP2C9, sequence (P11712 whole entry): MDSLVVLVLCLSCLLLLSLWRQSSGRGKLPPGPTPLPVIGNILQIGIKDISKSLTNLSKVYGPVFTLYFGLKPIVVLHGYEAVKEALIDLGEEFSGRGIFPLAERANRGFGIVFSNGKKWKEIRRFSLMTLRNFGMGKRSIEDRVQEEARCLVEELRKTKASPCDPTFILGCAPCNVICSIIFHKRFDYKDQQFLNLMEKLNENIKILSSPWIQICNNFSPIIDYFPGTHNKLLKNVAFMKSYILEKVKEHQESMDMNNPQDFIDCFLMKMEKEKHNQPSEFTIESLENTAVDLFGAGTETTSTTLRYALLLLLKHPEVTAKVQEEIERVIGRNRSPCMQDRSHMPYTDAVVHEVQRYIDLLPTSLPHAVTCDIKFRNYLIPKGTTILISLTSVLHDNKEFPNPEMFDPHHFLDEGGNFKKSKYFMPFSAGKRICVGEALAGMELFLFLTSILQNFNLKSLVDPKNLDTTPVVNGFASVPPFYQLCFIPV

The term inhibition denotes how much of the control response was suppressed. For the compound `CCCCNC(=O)NS(=O)(=O)c1ccc(C(F)(F)F)cc1N1CCN(Cc2nc3ccccc3n2C)CC1` [Compound A-10, 1-butyl-3-[2-[4-[(1-methylbenzimidazol-2-yl)methyl]piperazin-1-yl]-4-(trifluoromethyl)phenyl]sulfonyl-urea], the inhibition at 10 µM on CYP3A4 (setting [1]) came out at 54.2%; at CYP1A2, 23%; at CYP2C9, 46.1%.
Usually IC50 stands for the concentration needed to halve the response being measured. `CC(C)Oc1ccc(-c2nn[nH]n2)c(N2CCN(Cc3nc4ccccc4n3C)CC2)c1` [Compound A-24, 2-[[4-[5-isopropoxy-2-(2H-tetrazol-5-yl)phenyl]piperazin-1-yl]methyl]-1-methyl-benzimidazole]: the IC50 at human AT2R fused to Cb23 was found to be 7140 nM. The inhibition at 10 µM stood at 59.5% on CYP3A4 (setting [1]), 27.4% at CYP1A2 and 36.6% at CYP2C9.
In the case of `CC(C)Cc1ccc(-c2nn[nH]n2)c(N2CCN(Cc3nc4ccccc4c(=O)[nH]3)CC2)c1` [Compound A-31, 2-[[4-[5-isobutyl-2-(2H-tetrazol-5-yl)phenyl]piperazin-1-yl]methyl]-3H-quinazolin-4-one], at human AT2R fused to Cb23, the concentration for half-maximal inhibition (IC50) was 2070 nM. In addition, the inhibition at 10 µM was 94.6% at CYP3A4 (setting [1]), 6.09% on CYP1A2 and 73% on CYP2C9.
In the same order, the values of `CC(C)Oc1ccc(-c2nn[nH]n2)c(N2CCN(Cc3nc4ccccc4c(=O)[nH]3)CC2)c1` [Compound A-32] are 14700 nM, 68.2%, 7.17% and 62.4%.
The matching figures for `Cc1cc(CN2CCN(c3cc(CC(C)C)ccc3-c3nn[nH]n3)CC2)no1` [Compound A-82, 3-[[4-[5-isobutyl-2-(2H-tetrazol-5-yl)phenyl]piperazin-1-yl]methyl]-5-methyl-isoxazole]: 3200 nM, 50.6%, 9.89% and 32.1%.
The matching figures for `CC(C)Cc1ccc(-c2nn[nH]n2)c(N2CCN(Cc3nccn3C)CC2)c1` [Compound A-83, 1-[5-isobutyl-2-(2H-tetrazol-5-yl)-phenyl]-4-[(1-meth-ylimidazol-2-yl)-methyl]piperazine]: 1780 nM, 38.7%, 2.61% and 3.37%.
Take `CC(C)Cc1ccc(-c2nn[nH]n2)c(N2CCN(Cc3ccnn3C)CC2)c1` [Compound A-84, 1-[5-isobutyl-2-(2H-tetrazol-5-yl)phenyl]-4-[(1-methylpyrazol-5-yl)methyl]piperazine]: the IC50 at human AT2R fused to Cb23 is 2370 nM. The inhibition at 10 µM at CYP3A4 (setting [1]) is 49.1%; against CYP1A2, 5.6%; at CYP2C9 it was 56.2%.
On to `CC(C)Cc1ccc(-c2nn[nH]n2)c(N2CCN(Cc3ncccn3)CC2)c1` [Compound A-88], for which the concentration for half-maximal inhibition (IC50) on human AT2R fused to Cb23 is 15500 nM. For the same compound, the inhibition at 10 µM at CYP3A4 (setting [1]) is 21.1%; against CYP1A2, 22.5%; at CYP2C9, 15.8%.
The matching figures for `CC(C)Cc1ccc(-c2nn[nH]n2)c(N2CCN(Cc3cccnn3)CC2)c1` [Compound A-90, 3-[[4-[5-isobutyl-2-(2H-tetrazol-5-yl)phenyl]piperazin-1-yl]methyl]pyridazine]: 2030 nM, 55.3%, 10.3% and 28.4%.
The matching figures for `CC(C)Cc1cc(F)c(-c2nn[nH]n2)c(N2CCN(Cc3cccnn3)C(C)C2)c1` (stereo not drawn) [Compound A-173, 3-[[4-[3-fluoro-5-isobutyl-2-(2H-tetrazol-5-yl)phenyl]-2-methyl-piperazin-1-yl]methyl]pyridazine]: 16 nM, 29.4%, 18.5% and 17.2%.
The matching figures for `CC(C)Cc1cc(F)c(-c2nn[nH]n2)c(N2CCN(Cc3cccnn3)[C@@H](C)C2)c1` [Compound A-174, 3-[[(2S)-4-[3-fluoro-5-isobutyl-2-(2H-tetrazol-5-yl)phenyl]-2-methyl-piperazin-1-yl]methyl]pyridazine]: 2.35 nM, 36%, 22.7% and 20.9%.
Consider `CCC1CN(c2cc(CC(C)C)cc(F)c2-c2nn[nH]n2)CCN1Cc1cccnn1` (stereo not drawn) [Compound A-178, 3-[[2-ethyl-4-[3-fluoro-5-isobutyl-2-(2H-tetrazol-5-yl)phenyl]piperazin-1-yl]methyl]pyridazine], for which the 50% inhibitory concentration (IC50) at human AT2R fused to Cb23 was found to be 33.5 nM. The values for the inhibition at 10 µM on CYP3A4 (setting [1]), at CYP1A2 and at CYP2C9 were 8%, 23.5% and 45.6%, respectively.
As to `CC(C)Cc1cc(F)c(-c2nn[nH]n2)c(N2CCN(Cc3ccccn3)[C@@H](C)C2)c1` [Compound A-217, (2S)-4-[3-fluoro-5-isobutyl-2-(2H-tetrazol-5-yl)phenyl]-2-methyl-1-(2-pyridylmethyl)piperazine], the IC50 at human AT2R fused to Cb23 turned out to be 2.79 nM. Further, the inhibition at 10 µM at CYP3A4 (setting [2]) came to 73%; at CYP3A4 (setting [3]), 25%; at CYP1A2, 16%; on CYP2C9, 51%.
In the same order, the values of `Cc1cnc(CN2CCN(c3cc(CC(C)C)cc(F)c3-c3nn[nH]n3)C[C@@H]2C)s1` [Compound A-223, 2-[[(2S)-4-[3-fluoro-5-isobutyl-2-(2H-tetrazol-5-yl)phenyl]-2-methyl-piperazin-1-yl]methyl]-5-methyl-thiazole] are 6 nM, 82%, 28%, 16% and 43%.
